{
  "source": "patent US8530493B2",
  "about": "“Indolopyridines as Eg5 kinesin modulators” (4SC AG, priority 2006, dated 2013)",
  "data": [
    {"test_system": "RKO p21 uninduced (proliferating) colon adenocarcinoma cells", "experiment": "Alamar Blue cell viability assay, RKO p21 uninduced (proliferating)", "type": "cell-based", "details": "Homo sapiens, Table B3, anti-proliferative/cytotoxic activity, 72 hours, read-out: −log EC50 RKO p21 uninduced (proliferating) (converted)", "method_in_brief": "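Viability read by Alamar Blue fluorescence (ex 544, em 590 nm), normalised to untreated wells, after 72 h, 37° C, 5% CO2 compound exposure in triplicate. Cells were uninduced (no Ponasterone A), proliferating RKO colon carcinoma p27 or p21 subclones in DMEM with 10% FCS; values are −log EC50 (mol/l).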", "units": {"EC50": "µM"}, "values": [
      {"molecule": "CNCCN1C(=O)N2[C@H](c3cccc(O)c3)c3[nH]c4ccc(OC)c(F)c4c3C[C@@]2(C)C1=O", "note": "(racemic) [Example 406, (3aSR,10RS)-5-Fluoro-10-(3-hydroxy-phenyl)-6-methoxy-3a-methyl-2-(2-methylamino-ethyl)-3a,4,9,10-tetrahydro-2,9,10a-triaza-cyclopenta[b]fluorene-1,3-dione]", "EC50": "0.0398 to 0.251"},
      {"molecule": "CCNCCN1C(=O)N2[C@H](c3cccc(O)c3)c3[nH]c4ccc(OC)c(F)c4c3C[C@@]2(C)C1=O", "note": "(racemic) [Example 407, (3aSR,10RS)-2-(2-Ethylamino-ethyl)-5-fluoro-10-(3-hydroxy-phenyl)-6-methoxy-3a-methyl-3a,4,9,10-tetrahydro-2,9,10a-triaza-cyclopenta[b]fluorene-1,3-dione]", "EC50": "0.0398 to 0.251"},
      {"molecule": "COc1ccc2[nH]c3c(c2c1F)C[C@@]1(C)C(=O)N(CCNC(C)C)C(=O)N1[C@@H]3c1cccc(O)c1", "note": "(racemic) [Example 408, (3aSR,10RS)-5-Fluoro-10-(3-hydroxy-phenyl)-2-{2-isopropylamino-ethyl)-6-methoxy-3a-methyl-3a,4,9,10-tetrahydro-2,9,10a-triaza-cyclopenta[b]fluorene-1,3-dione]", "EC50": "0.0398 to 0.251"},
      {"molecule": "COc1ccc2[nH]c3c(c2c1F)C[C@@]1(C)C(=O)N(CCNCC2CC2)C(=O)N1[C@@H]3c1cccc(O)c1", "note": "(racemic) [Example 410, (3aSR,10RS)-2-[2-(Cyclopropylmethyl-amino)-ethyl]-5-fluoro-10-(3-hydroxy-phenyl)-6-methoxy-3a-methyl-3a,4,9,10-tetrahydro-2,9,10a-triaza-cyclopenta[b]fluorene-1,3-dione]", "EC50": "0.0398 to 0.251"},
      {"molecule": "COc1ccc2[nH]c3c(c2c1F)C[C@@]1(C)C(=O)N(CCNC2CCC2)C(=O)N1[C@@H]3c1cccc(O)c1", "note": "(racemic) [Example 413, (3aSR,10RS)-2-(2-Cyclobutylamino-ethyl)-5-fluoro-10-(3-hydroxy-phenyl)-6-methoxy-3a-methyl-3a,4,9,10-tetrahydro-2,9,10a-triaza-cyclopenta[b]fluorene-1,3-dione]", "EC50": "0.0398 to 0.251"},
      {"molecule": "COc1ccc2[nH]c3c(c2c1F)C[C@@]1(C)C(=O)N(CCNC(C)(C)C)C(=O)N1[C@@H]3c1cccc(O)c1", "note": "(racemic) [Example 414, (3aSR,10RS)-2-(2-tert-Butylamino-ethyl)-5-fluoro-10-(3-hydroxy-phenyl)-6-methoxy-3a-methyl-3a,4,9,10-tetrahydro-2,9,10a-triaza-cyclopenta[b]fluorene-1,3-dinone]", "EC50": "0.0398 to 0.251"},
      {"molecule": "COc1cc2c3c([nH]c2cc1F)[C@@H](c1cccc(O)c1)N1C(=O)N(CCNC2CCC2)C(=O)[C@]1(C)C3", "note": "(racemic) [Example 426, (3aSR,10RS)-2-(2-Cyclobutylamino-ethyl)-7-fluoro-10-(3-hydroxy-phenyl)-6-methoxy-3a-methyl-3a,4,9,10-tetrahydro-2,9,10a-triaza-cyclopenta[b]fluorene-1,3-dione]", "EC50": "≤ 0.0398"},
      {"molecule": "CCN(CCO)CCN1C(=O)N2[C@H](c3cccc(O)c3)c3[nH]c4cc(F)c(OC)cc4c3C[C@@]2(C)C1=O", "note": "(racemic) [Example 451, (3aSR,10RS)-2-{2-[Ethyl-(2-hydroxy-ethyl)-amino]-ethyl}-7-fluoro-10-(3-hydroxy-phenyl)-6-methoxy-3a-methyl-3a,4,9,10-tetrahydro-2,9,10a-triaza-cyclopenta[b]fluorene-1,3-dione]", "EC50": "0.0398 to 0.251"},
      {"molecule": "C=CCN(C)CCN1C(=O)N2[C@H](c3cccc(O)c3)c3[nH]c4cc(F)c(OC)cc4c3C[C@@]2(C)C1=O", "note": "(racemic) [Example 452, (3aSR,10RS)-2-[2-(Allyl-methyl-amino)-ethyl]-7-fluoro-10-(3-hydroxy-phenyl)-6-methoxy-3a-methyl-3a,4,9,10-tetrahydro-2,9,10a-triaza-cyclopenta[b]fluorene-1,3-dione]", "EC50": "0.0398 to 0.251"},
      {"molecule": "CN(CCO)CCCN1C(=O)N2[C@H](c3cccc(O)c3)c3[nH]c4ccc(OC(F)F)cc4c3C[C@@]2(C)C1=O", "note": "(racemic) [Example 453, (3aSR,10RS)-6-(1,1-Difluoro-methoxy)-2-{3-[(2-hydroxy-ethyl)-methyl-amino]-propyl}-10-(3-hydroxy-phenyl)-3a-methyl-3a,4,9,10-tetrahydro-2,9,10a-triaza-cyclopenta[b]fluorene-1,3-dione]", "EC50": "≤ 0.0398"},
      {"molecule": "CCN(CCOC)CCN1C(=O)N2[C@H](c3cccc(O)c3)c3[nH]c4cc(F)c(OC)cc4c3C[C@@]2(C)C1=O", "note": "(racemic) [Example 454, (3aSR,10RS)-2-{2-[Ethyl-(2-methoxy-ethyl)-amino]-ethyl}-7-fluoro-10-(3-hydroxy-phenyl)-6-methoxy-3a-methyl-3a,4,9,10-tetrahydro-2,9,10a-triaza-cyclopenta[b]fluorene-1,3-dione]", "EC50": "0.0398 to 0.251"},
      {"molecule": "CNCCCN1C(=O)N2[C@H](c3cccc(O)c3)c3[nH]c4cc(F)c(Cl)cc4c3C[C@@]2(C)C1=O", "note": "(racemic) [Example 456, (3aSR,10RS)-6-Chloro-7-fluoro-10-(3-hydroxy-phenyl)-3a-methyl-2-(3-methylamino-propyl)-3a,4,9,10-tetrahydro-2,9,10a-triaza-cyclopenta[b]fluorene-1,3-dione]", "EC50": "0.0398 to 0.251"},
      {"molecule": "CCNCCCN1C(=O)N2[C@H](c3cccc(O)c3)c3[nH]c4cc(F)c(Cl)cc4c3C[C@@]2(C)C1=O", "note": "(racemic) [Example 457, (3aSR,10RS)-6-Chloro-2-(3-ethylamino-propyl)-7-fluoro-10-(3-hydroxy-phenyl)-3a-methyl-3a,4,9,10-tetrahydro-2,9,10a-triaza-cyclopenta[b]fluorene-1,3-dione]", "EC50": "0.0398 to 0.251"},
      {"molecule": "CC(C)NCCCN1C(=O)N2[C@H](c3cccc(O)c3)c3[nH]c4cc(F)c(Cl)cc4c3C[C@@]2(C)C1=O", "note": "(racemic) [Example 458, (3aSR,10RS)-6-Chloro-7-fluoro-10-(3-hydroxy-phenyl)-2-(3-isopropylamino-propyl)-3a-methyl-3a,4,9,10-tetrahydro-2,9,10a-triaza-cyclopenta[b]fluorene-1,3-dione]", "EC50": "0.0398 to 0.251"},
      {"molecule": "CC(C)CNCCCN1C(=O)N2[C@H](c3cccc(O)c3)c3[nH]c4cc(F)c(Cl)cc4c3C[C@@]2(C)C1=O", "note": "(racemic) [Example 459, (3aSR,10RS)-6-Chloro-7-fluoro-10-(3-hydroxy-phenyl)-2-(3-isobutylamino-propyl)-3a-methyl-3a,4,9,10-tetrahydro-2,9,10a-triaza-cyclopenta[b]fluorene-1,3-dione]", "EC50": "0.0398 to 0.251"},
      {"molecule": "C[C@@]12Cc3c([nH]c4cc(F)c(Cl)cc34)[C@@H](c3cccc(O)c3)N1C(=O)N(CCCNCC1CC1)C2=O", "note": "(racemic) [Example 460, (3aSR,10RS)-6-Chloro-2-[3-(cyclopropylmethyl-amino)-propyl]-7-fluoro-10-(3-hydroxy-phenyl)-3a-methyl-3a,4,9,10-tetrahydro-2,9,10a-triaza-cyclopenta[b]fluorene-1,3-dione]", "EC50": "0.0398 to 0.251"},
      {"molecule": "C[C@@]12Cc3c([nH]c4cc(F)c(Cl)cc34)[C@@H](c3cccc(O)c3)N1C(=O)N(CCCNCCO)C2=O", "note": "(racemic) [Example 461, (3aSR,10RS)-6-Chloro-7-fluoro-2-[3-(2-hydroxy-ethylamino)-propyl]-10-(3-hydroxy-phenyl)-3a-methyl-3a,4,9,10-tetrahydro-2,9,10a-triaza-cyclopenta[b]fluorene-1,3-dione]", "EC50": "0.0398 to 0.251"}
    ]}
  ]
}
